In PubChem BioAssay (NCI):
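Cultured in 96-well plates, cells were exposed to test compound for 48 hours across five concentrations. TGI is the concentration that stops growth completely.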

Legend:
Assay in all cases: NCI tumour cell line growth inhibition, 48 h
SK-MEL-28 melanoma = system: SK-MEL-28 melanoma
EKVX NSCLC = system: EKVX NSCLC
PC-3 prostate = system: PC-3 prostate
T-47D breast = system: T-47D breast
K-562 leukemia = system: K-562 leukemia
HCT-116 colon = system: HCT-116 colon
HS 578T breast = system: HS 578T breast
DU-145 prostate = system: DU-145 prostate
MDA-N = system: MDA-N
NCI/ADR-RES ovarian = system: NCI/ADR-RES ovarian
MOLT-4 leukemia = system: MOLT-4 leukemia
MDA-MB-231 breast = system: MDA-MB-231 breast
LOX IMVI melanoma = system: LOX IMVI melanoma
MDA-MB-435 = system: MDA-MB-435
MALME-3M melanoma = system: MALME-3M melanoma
OVCAR-3 ovarian = system: OVCAR-3 ovarian
KM20L2 colon = system: KM20L2 colon
DLD-1 colon = system: DLD-1 colon
HOP-18 NSCLC = system: HOP-18 NSCLC
SNB-78 CNS = system: SNB-78 CNS

Cc1cc(C)c(S(=O)(=O)N(CCCN)OCCCN)c(C)c1
TGI (SK-MEL-28 melanoma): > 100 µM | TGI (EKVX NSCLC): > 100 µM | TGI (PC-3 prostate): > 100 µM | TGI (T-47D breast): > 100 µM | TGI (K-562 leukemia): > 100 µM | TGI (HCT-116 colon): > 100 µM | TGI (HS 578T breast): > 100 µM | TGI (DU-145 prostate): > 100 µM | TGI (MDA-N): > 100 µM | TGI (NCI/ADR-RES ovarian): > 100 µM | TGI (MOLT-4 leukemia): > 100 µM | TGI (MDA-MB-231 breast): > 100 µM | TGI (LOX IMVI melanoma): > 100 µM | TGI (MDA-MB-435): > 100 µM | TGI (MALME-3M melanoma): > 100 µM | TGI (OVCAR-3 ovarian): > 100 µM

CCN1C(=O)N2C(OC)c3ccccc3C(Br)C2(OC)C1=O (stereo unspecified)
TGI (SK-MEL-28 melanoma): > 100 µM | TGI (KM20L2 colon): > 100 µM | TGI (K-562 leukemia): > 100 µM | TGI (DLD-1 colon): > 100 µM | TGI (MOLT-4 leukemia): > 100 µM | TGI (LOX IMVI melanoma): > 100 µM | TGI (MALME-3M melanoma): > 100 µM | TGI (OVCAR-3 ovarian): > 100 µM

CC1CCN(c2cc(-c3cc4ccccc4o3)oc(=O)c2C#N)CC1
TGI (HOP-18 NSCLC): > 100 µM | TGI (SK-MEL-28 melanoma): > 100 µM | TGI (EKVX NSCLC): > 100 µM | TGI (KM20L2 colon): > 100 µM | TGI (K-562 leukemia): > 100 µM | TGI (HCT-116 colon): > 100 µM | TGI (DLD-1 colon): > 100 µM | TGI (MOLT-4 leukemia): > 100 µM | TGI (LOX IMVI melanoma): > 100 µM | TGI (MALME-3M melanoma): > 100 µM

CCOC(=O)[C@H]1Nc2c(cccc2[N+](=O)[O-])C2c3ccccc3CC21 (stereo partly specified)
TGI (SK-MEL-28 melanoma): > 100 µM | TGI (KM20L2 colon): > 100 µM | TGI (K-562 leukemia): > 100 µM | TGI (HCT-116 colon): > 100 µM | TGI (DLD-1 colon): > 100 µM | TGI (MOLT-4 leukemia): > 100 µM | TGI (LOX IMVI melanoma): > 100 µM | TGI (MALME-3M melanoma): > 100 µM | TGI (OVCAR-3 ovarian): > 100 µM | TGI (SNB-78 CNS): > 100 µM

O=C(/C=C\c1ccc(/C=C/C(=O)Nc2cccc(C3=NCCCN3)c2)cc1)Nc1cccc(C2=NCCCN2)c1
TGI (HOP-18 NSCLC): > 100 µM | TGI (SK-MEL-28 melanoma): > 100 µM | TGI (KM20L2 colon): > 100 µM | TGI (K-562 leukemia): > 100 µM | TGI (HCT-116 colon): > 100 µM | TGI (DLD-1 colon): > 100 µM | TGI (NCI/ADR-RES ovarian): > 100 µM | TGI (MOLT-4 leukemia): > 100 µM | TGI (LOX IMVI melanoma): > 100 µM | TGI (MALME-3M melanoma): > 100 µM | TGI (OVCAR-3 ovarian): > 100 µM | TGI (SNB-78 CNS): > 100 µM

c1csc(C(NC2=NCCO2)C2CC2)c1 (stereo unspecified)
TGI (EKVX NSCLC): > 100 µM | TGI (PC-3 prostate): > 100 µM | TGI (T-47D breast): > 100 µM | TGI (HCT-116 colon): > 100 µM | TGI (HS 578T breast): > 100 µM | TGI (MDA-N): > 100 µM | TGI (MOLT-4 leukemia): > 100 µM | TGI (MDA-MB-231 breast): > 100 µM | TGI (LOX IMVI melanoma): > 100 µM

CO/C(=N\N=C(/c1ccccc1)C(F)(F)F)c1ccncc1
TGI (SK-MEL-28 melanoma): > 100 µM | TGI (PC-3 prostate): > 100 µM | TGI (T-47D breast): > 100 µM | TGI (K-562 leukemia): > 100 µM | TGI (HCT-116 colon): > 100 µM | TGI (HS 578T breast): > 100 µM | TGI (DU-145 prostate): > 100 µM | TGI (NCI/ADR-RES ovarian): 71.6 µM | TGI (MOLT-4 leukemia): > 100 µM | TGI (MDA-MB-231 breast): > 100 µM | TGI (MDA-MB-435): > 100 µM | TGI (MALME-3M melanoma): > 100 µM | TGI (OVCAR-3 ovarian): > 100 µM

Fc1ccc(C(OCCN2CC3CC2CN3)c2ccc(F)cc2)cc1 (stereo unspecified)
TGI (SK-MEL-28 melanoma): 52.3 µM | TGI (PC-3 prostate): > 100 µM | TGI (T-47D breast): > 100 µM | TGI (K-562 leukemia): > 100 µM | TGI (HS 578T breast): > 100 µM | TGI (DU-145 prostate): > 100 µM | TGI (NCI/ADR-RES ovarian): > 100 µM | TGI (MOLT-4 leukemia): > 100 µM | TGI (MDA-MB-231 breast): > 100 µM | TGI (LOX IMVI melanoma): > 100 µM | TGI (MDA-MB-435): 53.8 µM | TGI (MALME-3M melanoma): 32.3 µM | TGI (OVCAR-3 ovarian): > 100 µM

Cc1ccc2oc3c(ccc(=O)n3C)c(=O)c2c1
TGI (SK-MEL-28 melanoma): > 100 µM | TGI (EKVX NSCLC): > 100 µM | TGI (PC-3 prostate): > 100 µM | TGI (T-47D breast): > 100 µM | TGI (K-562 leukemia): > 100 µM | TGI (HCT-116 colon): > 100 µM | TGI (HS 578T breast): > 100 µM | TGI (DU-145 prostate): > 100 µM | TGI (MDA-N): > 100 µM | TGI (NCI/ADR-RES ovarian): > 100 µM | TGI (MDA-MB-231 breast): > 100 µM | TGI (LOX IMVI melanoma): > 100 µM | TGI (MDA-MB-435): > 100 µM | TGI (MALME-3M melanoma): > 100 µM | TGI (OVCAR-3 ovarian): > 100 µM

Clc1cccc(C2SCc3nc4ccccc4n32)c1 (stereo unspecified)
TGI (HOP-18 NSCLC): 47.5 µM | TGI (SK-MEL-28 melanoma): 46.2 µM | TGI (EKVX NSCLC): 52.4 µM | TGI (K-562 leukemia): > 100 µM | TGI (DLD-1 colon): 34.1 µM | TGI (MOLT-4 leukemia): > 100 µM | TGI (LOX IMVI melanoma): 30.8 µM | TGI (MALME-3M melanoma): 62.1 µM | TGI (OVCAR-3 ovarian): 29.1 µM | TGI (SNB-78 CNS): 87.5 µM
